From PMC10892818, “An Antiherpesviral Host-Directed Strategy Based on CDK7 Covalently Binding Drugs: Target-Selective, Picomolar-Dose, Cross-Virus Reactivity” (Pharmaceutics, 2024)
Like-named read-outs stand apart in the source and are kept apart here.

Assays:
[1] = Neutral Red uptake assay (NRA), uninfected HFFs; type: cell-based; details: human, read-out: CC50 (VZV-GFP system)
Description: The cytotoxic level of the compounds was determined by the use of an established quantitation of cell viability (i.e., Neutral Red uptake assay) performed after 3–7 d of compound incubation on uninfected cells (according to the respective duration of the antiviral reporter-based replication assay performed in parallel) as described earlier in [44].

VZV Oka-GFP = test: microbe, parasite or virus in culture; type: cell-based, varicella zoster virus; details: for EC50: Human alphaherpesvirus 3, 96 h
Excerpt: The virus recombinants VZV Oka-GFP and rKSHV.219-GFP/RFP were used for the infection of HFFs (virus stock VZV Oka-GFP applied as a cell-bound inoculum as described before) or were continuously passaged in iSLK.219 carrier cells, respectively (Figure 1). The conditions of the GFP/RFP-based assays were adapted to both the 96 well (Figure 1A,B) and 12 well formats, and details including the assessment of antiviral reference drugs are given (Figure 1C,D).
The virus recombinants VZV Oka-GFP and rKSHV.219-GFP/RFP were used for the infection of HFFs (VZV) or were continuously passaged in iSLK.219 carrier cells (KSHV), respectively, and cell viability was determined by NRA performed with uninfected HFFs or uninduced iSLK.219 cells, respectively. (A,B) Schematic depiction of the assay systems performed in a 96 well plate format. […] For the VZV-GFP system, virus stock VZV Oka-GFP was applied as a cell-bound infectious inoculum. After a 90 min period of inoculum adsorption to the cell surfaces, antiviral compounds were added to the culture media at serial dilutions (DMSO served as a solvent control for drug treatment of infected cells, while mock-infected cells served as a negative control). For the KSHV-GFP/RFP system, iSLK.219 cell lytic replication of KSHV (RFP reporter signal) was induced by the addition of 0.05 or 0.5 µg/mL doxycycline (dox) to the culture media. Cultivated dox-induced iSLK.219 cells were treated with antiviral compounds added at serial dilutions (DMSO served as a positive infection solvent control, while dox-untreated mock cells served as a negative control). HFFs or iSLK.219 cells were harvested at 4 d p.i. or 1 d after treatment, respectively, fixed by a 10 min incubation with 10% formalin, washed with PBS, and used for quantitation of the GFP or RFP reporter signal by PicoMD counting (ImageXpress® Pico device, Molecular Devices LLC, San Jose, CA, USA), with data evaluation using CellReporterXpress® software (version 2.9.3.1183, Molecular Devices LLC) as described earlier in [63]. (C) The antiviral activity of the reference drugs was determined with the VZV-GFP system in the 96 well format. EC50 values refer to measurements in quadruplicate, and the mean values ± SD of two experimental replicates are given. (D) The antiviral activity of the reference drugs was determined with the KSHV-GFP/RFP system in the 96 well format. EC50 values refer to measurements in triplicate, and the mean values ± SD are given for each of the two depicted experimental replicates.

HCMV UL97-M460I = test system: HCMV UL97-M460I; design: method as in PMID 31940472; key: R-high, high-level drug resistance; R-int, intermediate-level drug resistance; R-low, low-level drug resistance; S, drug sensitivity; details: cited from earlier work
HCMV UL97-T409M = test system: HCMV UL97-T409M; design: method as in PMID 31940472; key: R-high, high-level drug resistance; R-int, intermediate-level drug resistance; R-low, low-level drug resistance; S, drug sensitivity; details: cited from earlier work
HCMV UL97-H411Y = test system: HCMV UL97-H411Y; design: method as in PMID 31940472; key: R-high, high-level drug resistance; R-int, intermediate-level drug resistance; R-low, low-level drug resistance; S, drug sensitivity; details: cited from earlier work
HCMV UL97-C480F = test system: HCMV UL97-C480F; design: method as in PMID 31940472; key: R-high, high-level drug resistance; R-int, intermediate-level drug resistance; R-low, low-level drug resistance; S, drug sensitivity; details: cited from earlier work
HCMV UL97-C592G = test system: HCMV UL97-C592G; design: method as in PMID 31940472; key: R-high, high-level drug resistance; R-int, intermediate-level drug resistance; R-low, low-level drug resistance; S, drug sensitivity; details: cited from earlier work
HCMV UL97-L397R = test system: HCMV UL97-L397R; design: method as in PMID 31940472; key: R-high, high-level drug resistance; R-int, intermediate-level drug resistance; R-low, low-level drug resistance; S, drug sensitivity; details: cited from earlier work
HCMV UL97-F342S = test system: HCMV UL97-F342S; design: method as in PMID 31940472; key: R-high, high-level drug resistance; R-int, intermediate-level drug resistance; R-low, low-level drug resistance; S, drug sensitivity; details: (for F342Y); cited from earlier work
HCMV UL97-H520Q = test system: HCMV UL97-H520Q; design: method as in PMID 31940472; key: R-high, high-level drug resistance; R-int, intermediate-level drug resistance; R-low, low-level drug resistance; S, drug sensitivity; details: cited from earlier work
HCMV UL97-C603W = test system: HCMV UL97-C603W; design: method as in PMID 31940472; key: R-high, high-level drug resistance; R-int, intermediate-level drug resistance; R-low, low-level drug resistance; S, drug sensitivity; details: cited from earlier work
[2] = read-out: VZV EC50 (first experimental replicate)
[3] = read-out: VZV EC50 (second experimental replicate)

SMILES	CC50 [1]	EC50 (VZV Oka-GFP; [2])	EC50 (VZV Oka-GFP; [3])	Reported phenotype UL97-M460I (HCMV UL97-M460I)	Reported phenotype UL97-T409M (HCMV UL97-T409M)	Reported phenotype UL97-H411Y (HCMV UL97-H411Y)	Reported phenotype UL97-C480F (HCMV UL97-C480F)	Reported phenotype UL97-C592G (HCMV UL97-C592G)	Reported phenotype UL97-L397R (HCMV UL97-L397R)	Reported phenotype UL97-F342S (HCMV UL97-F342S)	Reported phenotype UL97-H520Q (HCMV UL97-H520Q)	Reported phenotype UL97-C603W (HCMV UL97-C603W)	SI (VZV-GFP system) (VZV Oka-GFP; 96 well format)
Nc1nc(O)c2ncn(COC(CO)CO)c2n1 [GCV, ganciclovir]	> 100000 nM	1000 ± 800 nM	2900 ± 2700 nM	R-high	R-low	R-low	R-int	R-int	S	R-high	R-high	R-high	
Nc1ccn(C[C@@H](CO)OCP(=O)(O)O)c(=O)n1 [CDV, cidofovir]	> 100000 nM	300 ± 100 nM	300 ± 200 nM	S	S	S	S	S	S	S	S	S	> 323
